pIC50: −log10 of the molar value.
Tests used:
NCI-H292 [1] = test: Cytotoxicity evaluated against H292 tumor cell lines; Significant activity; type: functional, cell-based; settings: Homo sapiens
HL-60 [2] = test: Cytotoxicity evaluated against HL-60 tumor cell lines; Significant activity; type: functional, cell-based; settings: Homo sapiens
WI-38 [3] = test: Cytotoxicity evaluated against WI38 tumor cell lines; Significant activity; type: functional, cell-based; settings: Homo sapiens
NCI-H596 [4] = test: Cytotoxicity evaluated against H596 tumor cell lines; Significant activity; type: functional, cell-based; settings: Homo sapiens
Tumor cell line = test: In vivo testing against tumor cells that were placed in the polyvinylidene fluoride (PVDF) hollow fibers of capsules and then implanted in to mice intraperitoneally or subcutaneously; type: functional, Mus musculus
CCRF-CEM [5] = test: Cytotoxicity evaluated against CEM tumor cell lines; Significant activity; type: functional, cell-based; settings: Homo sapiens
B16 [6] = test: Cytotoxicity was evaluated against B16 tumor cell lines; Significant activity; type: functional, cell-based; settings: Mus musculus
NIH3T3 [7] = test: Cytotoxicity evaluated against NIH3T3 tumor cell lines; Significant activity; type: functional, cell-based; settings: Mus musculus
K562 [8] = test: Cytotoxicity evaluated against K562 tumor cell lines; Significant activity; type: functional, cell-based; settings: Homo sapiens
Jurkat = test: In vitro test for antitumor activity against human Jurkat cell line using a formazan dye (MTT) conversion assay.; type: functional, cell-based
MCF7 [9] = test: Cytotoxicity evaluated against MCF-7 tumor cell lines; Significant activity; type: functional, cell-based; settings: Homo sapiens
WIL2 [10] = test: Cytotoxicity evaluated against WIL2 tumor cell lines; Significant activity; type: functional, cell-based; settings: Homo sapiens
L1210 [11] = test: Cytotoxicity evaluated against L1210 tumor cell lines; Significant activity; type: functional, cell-based; settings: Mus musculus
A549 [12] = test: Cytotoxicity evaluated against A549 tumor cell lines; significant activity; type: functional, cell-based; settings: Homo sapiens
MOLT-4 [13] = test: Cytotoxicity was evaluated against Molt-4 tumor cell lines; type: functional, cell-based; settings: Homo sapiens
WI-38 [14] = test: Cytotoxicity was evaluated against WI38 tumor cell lines; Significant activity; type: functional, cell-based; settings: Homo sapiens
CCRF-CEM [15] = test: Cytotoxicity was evaluated against CEM tumor cell lines; Slightly active; type: functional, cell-based; settings: Homo sapiens
NCI-H292 [16] = test: Cytotoxicity was evaluated against H292 tumor cell lines; Slightly active; type: functional, cell-based; settings: Homo sapiens
WIL2 [17] = test: Cytotoxicity was evaluated against WIL2 tumor cell lines; Slightly active; type: functional, cell-based; settings: Homo sapiens
B16 [18] = test: Cytotoxicity was evaluated against B16 tumor cell lines; Slightly active; type: functional, cell-based; settings: Mus musculus
MOLT-4 [19] = test: Cytotoxicity was evaluated against Molt-4 tumor cell lines; Slightly active; type: functional, cell-based; settings: Homo sapiens
MCF7 [20] = test: Cytotoxicity was evaluated against MCF-7 tumor cell lines; Slightly active; type: functional, cell-based; settings: Homo sapiens
HL-60 [21] = test: Cytotoxicity was evaluated against HL-60 tumor cell lines; Slightly active; type: functional, cell-based; settings: Homo sapiens
A549 [22] = test: Cytotoxicity was evaluated against A549 tumor cell lines; Slightly active; type: functional, cell-based; settings: Homo sapiens
NIH3T3 [23] = test: Cytotoxicity was evaluated against NIH3T3 tumor cell lines; Slightly active; type: functional, cell-based; settings: Mus musculus
K562 [24] = test: Cytotoxicity was evaluated against K562 tumor cell lines; Slightly active; type: functional, cell-based; settings: Homo sapiens
NCI-H596 [25] = test: Cytotoxicity was evaluated against H596 tumor cell lines; Slightly active; type: functional, cell-based; settings: Homo sapiens
WI-38 [26] = test: Cytotoxicity was evaluated against WI38 tumor cell lines; Slightly active; type: functional, cell-based; settings: Homo sapiens
L1210 [27] = test: Cytotoxicity was evaluated against L1210 tumor cell lines; Slightly active; type: functional, cell-based; settings: Mus musculus

Compound	Cytotoxicity (NCI-H292 [1])	Cytotoxicity (HL-60 [2])	Cytotoxicity (WI-38 [3])	Cytotoxicity (NCI-H596 [4])	IP+SC score (Tumor cell line)	Cytotoxicity (CCRF-CEM [5])	Cytotoxicity (B16 [6])	Cytotoxicity (NIH3T3 [7])	Cytotoxicity (K562 [8])	pIC50 (Jurkat)	Cytotoxicity (MCF7 [9])	Cytotoxicity (WIL2 [10])	Cytotoxicity (L1210 [11])	Cytotoxicity (A549 [12])	Cytotoxicity (MOLT-4 [13])	further results
COc1cc2c(c(N)c1OC)C(=O)/C(=C/c1cc(C)c(O)c(C)c1)C2	Significant activity	Significant activity	Significant activity	Significant activity	>20	Significant activity	Significant activity	Significant activity	Significant activity	8.40	Significant activity	Significant activity	Significant activity	Significant activity	Significant activity	
COc1cc2c(cc1OC)C(=O)/C(=C/c1cc(C)c(O)c(C)c1)C2	Significant activity	Significant activity	Significant activity	Significant activity	>20	Significant activity	Significant activity	Significant activity	Significant activity	8.22	Significant activity	Significant activity	Significant activity	Significant activity	Significant activity	
COc1cc2c(cc1OC)C(=O)/C(=C/c1cc(Cl)cc(Cl)c1)C2	Significant activity	Significant activity	Significant activity	Significant activity	<20	Significant activity	Significant activity	Significant activity	Significant activity	5.70	Significant activity	Significant activity	Significant activity	Significant activity	Significant activity	
COc1cccc(/C=C2\CCc3cc(OC)c(OC)cc3C2=O)c1	Significant activity	Significant activity		Significant activity		Significant activity	Significant activity	Significant activity	Significant activity	5.30	Significant activity	Significant activity	Significant activity	Significant activity	Significant activity	Cytotoxicity (WI-38 [14]): Significant activity
COc1cc2c(cc1OC)C(=O)/C(=C/c1cc(C)cc(C)c1)C2	Significant activity	Significant activity	Significant activity	Significant activity	<20	Significant activity	Significant activity	Significant activity	Significant activity	7.10	Significant activity	Significant activity	Significant activity	Significant activity	Significant activity	
COc1cc(/C=C2\Cc3cc(OC)c(OC)cc3C2=O)cc(OC)c1	Significant activity	Significant activity	Significant activity	Significant activity	<20	Significant activity	Significant activity	Significant activity	Significant activity	5.52	Significant activity	Significant activity	Significant activity	Significant activity	Significant activity	
COc1cc2c(cc1OC)C(=O)/C(=C/c1cccc([N+](=O)[O-])c1)C2										4.66						Cytotoxicity (CCRF-CEM [15]): Weak activity; Cytotoxicity (NCI-H292 [16]): Weak activity; Cytotoxicity (WIL2 [17]): Weak activity; Cytotoxicity (B16 [18]): Weak activity; Cytotoxicity (MOLT-4 [19]): Weak activity; Cytotoxicity (MCF7 [20]): Weak activity; Cytotoxicity (HL-60 [21]): Weak activity; Cytotoxicity (A549 [22]): Weak activity; Cytotoxicity (NIH3T3 [23]): Weak activity; Cytotoxicity (K562 [24]): Weak activity; Cytotoxicity (NCI-H596 [25]): Weak activity; Cytotoxicity (WI-38 [26]): Weak activity; Cytotoxicity (L1210 [27]): Weak activity
COc1cc2c(c([N+](=O)[O-])c1O)C/C(=C\c1cc(C)c(O)c(C)c1)C2=O	Significant activity	Significant activity		Significant activity		Significant activity	Significant activity	Significant activity	Significant activity	5.03	Significant activity	Significant activity	Significant activity	Significant activity	Significant activity	Cytotoxicity (WI-38 [14]): Significant activity

From ChEMBL document CHEMBL1133412, “Rational design, synthesis and structure-activity relationships of antitumor (E)-2-benzylidene-1-tetralones and (E)-2-benzylidene-1-indanones” (Bioorg Med Chem Lett, 2000)
